Data on 18 compounds can be found in US10173985B2, “Aminoindazole derivatives as sodium channel inhibitors” (ALMIRALL, S.A., priority 2015, dated 2019).

For data set [1], the target named is voltage-gated sodium channel Nav1.7 (Homo sapiens (Human), UniProt Q15858). As to the kind of experiment: Nav1.7 screening assay, IonWorks Quattro automated patch-clamp electrophysiology. The data set is classed as cell-based. As to conditions: stable CHO or HEK293 cell line expressing Nav1.7; percent block at peak 1 and peak 10; 5 minutes compound incubation; read-out: Nav 1.7 IC50. How it is done:
(§1) Assay Procedure Nav1.7 and Nav1.5 Screening Assay
(§2) Stable cell lines expressing the full-length protein of the voltage-gated sodium channels Nav1.7 or Nav1.5, with or without one beta-1, beta-2, beta-3, or beta-4 subunit, are created by transfected CHO cells or HEK293 cells, or any other suitable cell line, with a vector construct containing the complete open reading frame under a suitable promoter, as well known in the art.
(§3) Electrophysiological studies are performed with an IonWorks Quattro (Molecular Devices Corp.) automated patch-clamp electrophysiology platform as described by (Schroeder K et al. Journal of Biomolecular Screening 2003, 8 (1), 50-64). Buffers for the experiments have the following composition (mM): Internal solution; K-gluconate 100, KCl 40, MgCl2 3.2, HEPES 5, EGTA 3, pH 7.3. To this amphotericin B is added to final concentration of 0.1 mg/ml to generate access solution. External solution; Dulbecco's Phosphate buffered saline (D-PBS) NaCl 137.93, KCl 2.67, KH2PO4 1.47, Na2HPO4 8.06, CaCl2 0.90, MgCl2 0.49. Prior to the experiment the cells expressing the voltage-gated ion channel of interest are detached from the tissue culture flasks, centrifuged and resuspended in D-PBS. Compounds are prepared and serially diluted in DMSO and finally diluted 1:100 in D-PBS. Cells are exposed to compounds through the pipetting system integrated into the platform and the voltage-gated ion channel of interest is activated with specific voltage stimulation protocols. The following voltage stimulation protocol is used for testing compounds against the voltage-gated sodium channel Nav1.7; from a holding potential of −100 mV a train of eight 60 ms depolarising steps to −20 mV at a frequency of 14 Hz are employed followed by a further step to −20 mV for 2000 ms. After which the voltage is returned to −100 mV for 10 ms before another voltage step to −20 mV for 60 ms is applied. The following voltage stimulation protocol is used for testing compounds against the voltage-gated sodium channel Nav1.5; from a holding potential of −120 mV a train of twenty-six 120 ms depolarising steps to −20 mV at a frequency of 5 Hz are employed. Recordings are made before and after compound addition with the compound incubation time being 5 minutes.
For orientation: Patch clamp records ionic current or voltage across a cell membrane.

Data set [2] has as its target voltage-gated sodium channel Nav1.5 (Homo sapiens (Human), UniProt Q14524). As to the kind of experiment: Nav1.5 screening assay, IonWorks Quattro automated patch-clamp electrophysiology. The data set is classed as cell-based. As to conditions: stable CHO or HEK293 cell line expressing Nav1.5; percent block at peak 1 and 25; 5 minutes compound incubation; read-out: Nav 1.5 IC50. How it is done:
as §1, §2, §3

Where only a bound is given, the exact number is not on record here.

voltage-gated sodium channel Nav1.7, sequence (Q15858 whole entry): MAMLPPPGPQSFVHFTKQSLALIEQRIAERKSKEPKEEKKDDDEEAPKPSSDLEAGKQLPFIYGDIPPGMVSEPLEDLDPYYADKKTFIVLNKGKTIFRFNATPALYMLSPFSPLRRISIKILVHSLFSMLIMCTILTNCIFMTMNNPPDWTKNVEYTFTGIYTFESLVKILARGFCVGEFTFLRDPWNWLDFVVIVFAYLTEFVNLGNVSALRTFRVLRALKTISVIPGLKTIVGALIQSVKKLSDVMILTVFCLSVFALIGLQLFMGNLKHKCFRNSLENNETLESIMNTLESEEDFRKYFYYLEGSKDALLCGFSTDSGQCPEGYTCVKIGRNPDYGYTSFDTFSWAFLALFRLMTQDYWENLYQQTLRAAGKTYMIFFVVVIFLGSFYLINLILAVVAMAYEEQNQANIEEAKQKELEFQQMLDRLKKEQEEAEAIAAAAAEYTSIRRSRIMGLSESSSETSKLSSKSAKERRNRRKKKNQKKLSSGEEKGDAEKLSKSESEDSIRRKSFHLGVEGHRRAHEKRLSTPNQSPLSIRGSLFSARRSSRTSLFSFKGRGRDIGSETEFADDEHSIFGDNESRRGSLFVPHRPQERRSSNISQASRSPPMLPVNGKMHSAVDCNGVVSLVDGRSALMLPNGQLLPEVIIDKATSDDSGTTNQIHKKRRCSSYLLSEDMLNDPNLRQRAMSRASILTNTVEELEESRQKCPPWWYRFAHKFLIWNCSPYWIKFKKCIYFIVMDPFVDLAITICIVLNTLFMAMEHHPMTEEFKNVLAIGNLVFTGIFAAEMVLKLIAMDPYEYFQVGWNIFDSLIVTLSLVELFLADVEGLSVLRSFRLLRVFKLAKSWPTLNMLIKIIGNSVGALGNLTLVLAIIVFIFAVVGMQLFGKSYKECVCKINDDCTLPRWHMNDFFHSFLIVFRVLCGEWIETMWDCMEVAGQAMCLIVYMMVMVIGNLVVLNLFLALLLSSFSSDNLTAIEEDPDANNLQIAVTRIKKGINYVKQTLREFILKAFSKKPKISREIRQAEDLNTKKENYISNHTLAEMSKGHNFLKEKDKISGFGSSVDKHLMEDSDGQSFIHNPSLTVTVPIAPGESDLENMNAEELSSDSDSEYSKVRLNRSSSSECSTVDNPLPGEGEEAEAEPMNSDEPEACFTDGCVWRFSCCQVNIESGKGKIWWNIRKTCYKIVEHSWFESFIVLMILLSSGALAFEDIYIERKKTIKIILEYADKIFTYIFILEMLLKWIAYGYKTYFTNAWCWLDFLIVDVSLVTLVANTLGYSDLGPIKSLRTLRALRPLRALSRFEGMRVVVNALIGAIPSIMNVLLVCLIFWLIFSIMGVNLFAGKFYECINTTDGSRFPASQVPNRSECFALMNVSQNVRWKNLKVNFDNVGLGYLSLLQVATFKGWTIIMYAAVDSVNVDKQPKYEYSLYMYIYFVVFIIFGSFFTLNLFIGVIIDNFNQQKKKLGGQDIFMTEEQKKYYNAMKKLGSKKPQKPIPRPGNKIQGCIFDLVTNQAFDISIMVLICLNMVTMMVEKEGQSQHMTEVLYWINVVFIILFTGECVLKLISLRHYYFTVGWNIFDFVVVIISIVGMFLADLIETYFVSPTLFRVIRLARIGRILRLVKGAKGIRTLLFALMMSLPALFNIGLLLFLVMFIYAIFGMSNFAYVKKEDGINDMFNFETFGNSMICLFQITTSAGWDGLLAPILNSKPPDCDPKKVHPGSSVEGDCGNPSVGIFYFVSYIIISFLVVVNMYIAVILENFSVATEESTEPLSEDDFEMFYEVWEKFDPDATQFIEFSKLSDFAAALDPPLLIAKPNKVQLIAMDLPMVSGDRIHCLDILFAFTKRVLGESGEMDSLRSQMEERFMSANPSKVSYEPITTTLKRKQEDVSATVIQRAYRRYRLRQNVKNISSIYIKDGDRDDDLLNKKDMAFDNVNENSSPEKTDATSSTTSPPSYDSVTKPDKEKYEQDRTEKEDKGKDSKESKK
voltage-gated sodium channel Nav1.5, sequence (Q14524 whole entry): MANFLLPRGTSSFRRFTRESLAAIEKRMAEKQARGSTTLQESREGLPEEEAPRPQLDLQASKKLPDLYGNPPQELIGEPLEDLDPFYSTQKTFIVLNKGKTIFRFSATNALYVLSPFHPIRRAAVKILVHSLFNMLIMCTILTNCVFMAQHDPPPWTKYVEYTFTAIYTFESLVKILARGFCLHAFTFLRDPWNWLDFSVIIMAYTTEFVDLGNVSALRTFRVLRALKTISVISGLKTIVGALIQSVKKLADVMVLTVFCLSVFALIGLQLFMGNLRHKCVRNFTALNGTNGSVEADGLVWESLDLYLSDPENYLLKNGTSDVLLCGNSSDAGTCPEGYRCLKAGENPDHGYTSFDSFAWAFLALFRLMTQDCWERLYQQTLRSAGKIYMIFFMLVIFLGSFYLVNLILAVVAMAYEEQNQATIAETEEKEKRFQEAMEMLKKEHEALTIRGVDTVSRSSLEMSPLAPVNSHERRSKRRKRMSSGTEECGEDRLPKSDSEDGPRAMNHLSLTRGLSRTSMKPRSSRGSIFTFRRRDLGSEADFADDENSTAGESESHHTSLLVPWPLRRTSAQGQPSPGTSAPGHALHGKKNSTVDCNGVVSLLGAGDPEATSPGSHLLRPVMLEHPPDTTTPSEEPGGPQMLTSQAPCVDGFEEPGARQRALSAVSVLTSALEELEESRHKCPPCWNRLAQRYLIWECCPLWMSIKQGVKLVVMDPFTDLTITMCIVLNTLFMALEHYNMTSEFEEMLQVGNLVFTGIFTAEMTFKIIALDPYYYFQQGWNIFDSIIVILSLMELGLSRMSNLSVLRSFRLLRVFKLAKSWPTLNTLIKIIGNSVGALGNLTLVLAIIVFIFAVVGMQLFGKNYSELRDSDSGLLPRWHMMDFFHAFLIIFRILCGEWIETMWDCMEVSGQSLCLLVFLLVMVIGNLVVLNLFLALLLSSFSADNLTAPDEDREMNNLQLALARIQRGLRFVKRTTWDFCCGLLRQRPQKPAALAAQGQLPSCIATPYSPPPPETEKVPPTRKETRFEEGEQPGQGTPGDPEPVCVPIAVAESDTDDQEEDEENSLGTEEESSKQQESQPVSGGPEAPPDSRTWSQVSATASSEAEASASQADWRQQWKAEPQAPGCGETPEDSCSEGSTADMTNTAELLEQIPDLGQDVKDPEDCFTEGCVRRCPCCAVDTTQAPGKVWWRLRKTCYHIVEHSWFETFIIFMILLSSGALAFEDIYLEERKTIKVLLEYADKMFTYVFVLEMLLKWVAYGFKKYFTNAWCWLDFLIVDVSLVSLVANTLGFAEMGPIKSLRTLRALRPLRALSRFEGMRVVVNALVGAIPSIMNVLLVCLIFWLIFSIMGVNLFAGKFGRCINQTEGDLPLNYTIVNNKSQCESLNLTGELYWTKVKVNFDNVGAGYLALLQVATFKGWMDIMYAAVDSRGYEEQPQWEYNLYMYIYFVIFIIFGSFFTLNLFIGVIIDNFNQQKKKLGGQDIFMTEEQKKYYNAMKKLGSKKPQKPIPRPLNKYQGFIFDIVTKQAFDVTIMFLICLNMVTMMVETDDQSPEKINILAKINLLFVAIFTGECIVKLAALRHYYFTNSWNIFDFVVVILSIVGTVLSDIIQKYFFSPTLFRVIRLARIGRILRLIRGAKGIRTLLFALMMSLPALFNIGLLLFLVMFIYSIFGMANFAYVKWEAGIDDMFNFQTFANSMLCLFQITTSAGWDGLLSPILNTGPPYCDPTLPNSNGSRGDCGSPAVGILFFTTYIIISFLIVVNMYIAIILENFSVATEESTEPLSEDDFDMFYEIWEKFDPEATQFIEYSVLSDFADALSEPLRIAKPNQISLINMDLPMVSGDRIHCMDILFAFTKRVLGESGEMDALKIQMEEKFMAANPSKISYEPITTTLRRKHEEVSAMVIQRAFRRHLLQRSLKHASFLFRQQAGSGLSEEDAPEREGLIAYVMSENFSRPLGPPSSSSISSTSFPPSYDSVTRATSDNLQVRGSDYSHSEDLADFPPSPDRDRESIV

By IC50 is commonly meant the point on the concentration scale where inhibition reaches its midpoint. “6-(2-(2,2,3,3,3-pentafluoropropoxy)phenyl)-1H-indazol-3-amine [Example 14]”: the IC50 was determined as 560 nM in data set [1] and 8000 nM in data set [2].

With `COc1ccc(OCC(F)(F)C(F)(F)F)c(-c2ccc3c(N)nn(C)c3c2)c1` [Example 3, 6-(5-methoxy-2-(2,2,3,3,3-pentafluoropropoxy)phenyl)-1-methyl-1H-indazol-3-amine], the IC50 in data set [2] is > 33000 nM.

Regarding `Cn1nc(N)c2ccc(-c3ccccc3OCC(F)(F)F)cc21` [Example 8, 1-methyl-6-(2-(2,2,2-trifluoroethoxy)phenyl)-1H-indazol-3-amine], the IC50 is 320 nM in data set [1] and > 33000 nM in data set [2].

`Cn1nc(NCCO)c2ccc(-c3ccccc3OCC(F)(F)C(F)(F)F)cc21` [Example 12, 2-(1-methyl-6-(2-(2,2,3,3,3-pentafluoropropoxy)phenyl)-1H-indazol-3-ylamino)ethanol]: the IC50 in data set [1] was 820 nM; in data set [2] it was > 33000 nM.

For `Cn1nc(N)c2ccc(-c3cccc(F)c3OCC(F)(F)C(F)(F)F)cc21` [Example 22, 6-(3-fluoro-2-(2,2,3,3,3-pentafluoropropoxy)phenyl)-1-methyl-1H-indazol-3-amine], the IC50 in data set [1] is 100 nM; in data set [2], > 33000 nM.

With `Cn1nc(N)c2ccc(-c3c(F)cccc3OCC(F)(F)C(F)(F)F)cc21` [Example 24, 6-(2-fluoro-6-(2,2,3,3,3-pentafluoropropoxy)phenyl)-1-methyl-1H-indazol-3-amine], the IC50 in data set [1] was 560 nM; in data set [2], > 33000 nM.

Consider `NC(=O)Cn1nc(N)c2ccc(-c3cccc(F)c3OCC(F)(F)C(F)(F)F)cc21` [Example 26, 2-(3-amino-6-(3-fluoro-2-(2,2,3,3,3-pentafluoropropoxy)phenyl)-1H-indazol-1-yl)acetamide], for which, in data set [1], the IC50 is 3650 nM.

On to `Cn1nc(NCCCO)c2ccc(-c3ccccc3OCC(F)(F)C(F)(F)F)cc21` [Example 27, 3-(1-methyl-6-(2-(2,2,3,3,3-pentafluoropropoxy)phenyl)-1H-indazol-3-ylamino)propan-1-ol], for which the IC50 in data set [1] was found to be 1500 nM; in data set [2], 19800 nM.

As to `COc1cccc(-c2ccc3c(N)nn(C)c3c2)c1OCC(F)(F)F` [Example 40, 6-(3-methoxy-2-(2,2,2-trifluoroethoxy)phenyl)-1-methyl-1H-indazol-3-amine], the IC50 is 200 nM in data set [1] and > 33000 nM in data set [2].

With `COc1cccc(-c2ccc3c(N)nn(C)c3c2)c1OCC(F)F` [Example 41, 6-(2-(2,2-difluoroethoxy)-3-methoxyphenyl)-1-methyl-1H-indazol-3-amine], in data set [2], the IC50 was > 33000 nM.

As to `Cn1nc(N)c2ccc(-c3cccc(F)c3OCC(F)F)cc21` [Example 42, 6-(2-(2,2-difluoroethoxy)-3-fluorophenyl)-1-methyl-1H-indazol-3-amine], the IC50 was 290 nM in data set [1] and 23000 nM in data set [2].

`CN1CCC(CNc2nn(C)c3cc(-c4cccc(F)c4OCC(F)(F)F)ccc23)CC1` [Example 44, 6-(3-fluoro-2-(2,2,2-trifluoroethoxy)phenyl)-1-methyl-N-((1-methylpiperidin-4-yl)methyl)-1H-indazol-3-amine]: the IC50 in data set [1] came out at 1860 nM; in data set [2], 4500 nM.

`Cn1nc(N)c2ccc(-c3cccnc3OCC(F)(F)F)cc21` [Example 47, 1-methyl-6-(2-(2,2,2-trifluoroethoxy)pyridin-3-yl)-1H-indazol-3-amine]: the IC50 in data set [1] was 2370 nM; in data set [2], > 33000 nM.

In the case of `CNc1nn(C)c2cc(-c3cccc(F)c3OCC(F)F)ccc12` [Example 57, 6-(2-(2,2-difluoroethoxy)-3-fluorophenyl)-N,1-dimethyl-1H-indazol-3-amine], the IC50 in data set [1] is 1300 nM; in data set [2] it was > 33000 nM.

For `Cn1nc(N)c2ccc(-c3cccc(F)c3OC(F)F)cc21` [Example 58, 6-(2-(difluoromethoxy)-3-fluorophenyl)-1-methyl-1H-indazol-3-amine], the IC50 is 860 nM in data set [1] and > 33000 nM in data set [2].

Consider `Nc1nn(CCCO)c2cc(-c3ccccc3C(F)(F)F)ccc12` [Example 67, 3-(3-amino-6-(2-(trifluoromethyl)phenyl)-1H-indazol-1-yl)propan-1-ol], for which the IC50 in data set [1] stood at 740 nM; in data set [2], 30000 nM.

Regarding `Nc1nn(CCCO)c2cc(-c3ccccc3OC(F)(F)F)ccc12` [Example 68, 3-(3-amino-6-(2-(trifluoromethoxy)phenyl)-1H-indazol-1-yl)propan-1-ol], the values for the IC50 in data set [1] and in data set [2] were 200 nM and 25000 nM, respectively.

Take `COCCn1nc(N)c2ccc(-c3ccccc3OC(F)(F)F)cc21` [Example 82, 1-(2-methoxyethyl)-6-(2-(trifluoromethoxy)phenyl)-1H-indazol-3-amine]: the IC50 in data set [1] came out at 2000 nM.
